Results reported in PMC6733874, “Zebrafish behavioural profiling identifies GABA and serotonin receptor ligands related to sedation and paradoxical excitation” (Nature Communications, 2019).
“Also recorded” adds a separate entry of the source.

Legend:
[1] = tested on: human GABAARs (α1β2 and α1β2γ2); format: cell-based; conditions: for Ave Norm FLIPR Score / FLIPR Results: compound at 20 uM then 5 uM GABA; for Ave Norm FLIPR Score: DMSO = 1; for FLIPR Results: Positive/Negative; for GABAAR PAM activity in FLIPR, in words: in the presence of GABA
Description: To determine if these compounds targeted human GABAARs, we tested them in a fluorescent imaging plate reader (FLIPR) assay on HEK293 cells transfected with α1β2 and α1β2γ2 human GABAAR subtypes. […]. […] While some of the compounds appeared to function in this assay as negative allosteric modulators (NAMs), reductions in fluorescence were likely due to toxicity-induced cell loss (Fig. 2f, Supplementary Table 5).
We used the FLIPR system (Molecular Devices) to quantify GABA-evoked activity of human GABAARs. We chose a membrane potential dye (Molecular Devices) to measure changes in membrane potentials and stably transfected HEK293 cells that expressed α1, β2 and γ2. Since we observed an increase in GABA-evoked responses when transfected with γ2 transiently, we describe the cells as having a low level of γ-subunit expression, indicating heterogeneity of GABAAR compositions in the cell (α1β2 or α1β2γ2). To assay for direct agonists, fluorescence was subtracted pre- and post compound addition. To assay for PAMs, cells were treated with compound at 20 uM and then with 5 uM GABA.

[2] = target: benzodiazepine receptor (BZP); assay: In vitro receptor binding (NIMH PDSP); conditions: in words; binding counted at Ki < 10 μM
Description: (§1) A second approach to target identification was to test the binding affinity of hit compounds against a panel of 43 human and rodent neurotransmitter-related targets. […]. Several hit compounds bound to multiple targets, including compound 7145248, which bound to TSPO, the benzodiazepine receptor (BZP), dopamine transporter, and the alpha 2b receptor (Fig. 3d). The most common targets (binding > 5 compounds) included BZP, sigma 2, HTR2A/B/C, HTR6, and TSPO (Fig. 3c, d). TSPO, previously known as the peripheral benzodiazepine receptor (PBR) (because it was originally identified as a binding site for benzodiazepine anxiolytic drugs), is a mitochondrial protein that supplies cholesterol to steroid-producing enzymes in the brain[36]. TSPO ligands are thought to enhance GABAergic signaling by increasing neurosteroid production. However, some TSPO ligands, including benzodiazepines and zolpidem, also bind to GABAARs directly. […] Of the 14 compounds that bound to TSPO in vitro, 5 compounds potentiated GABAAR in FLIPR assays (Fig. 3c; 2f, green arrowheads).
(§2) In vitro binding assays and Ki data were generated by the National Institute of Mental Health’s Psychoactive Drug Screening Program (PDSP), contract no. HHSN-271-2008-00025-C (NIMH PDSP), for assay details: http://pdsp.med.unc.edu/PDSP%20Protocols%20II%202013-03-28.pdf. Normalized Ki (npKi) values were generated as follows: npKi = 4 + (−log10 (Ki))[64].

dopamine transporter = dopamine transporter (Homo sapiens, UniProt Q01959); assay: In vitro receptor binding (NIMH PDSP)
Chain of dopamine transporter (Q01959 whole entry): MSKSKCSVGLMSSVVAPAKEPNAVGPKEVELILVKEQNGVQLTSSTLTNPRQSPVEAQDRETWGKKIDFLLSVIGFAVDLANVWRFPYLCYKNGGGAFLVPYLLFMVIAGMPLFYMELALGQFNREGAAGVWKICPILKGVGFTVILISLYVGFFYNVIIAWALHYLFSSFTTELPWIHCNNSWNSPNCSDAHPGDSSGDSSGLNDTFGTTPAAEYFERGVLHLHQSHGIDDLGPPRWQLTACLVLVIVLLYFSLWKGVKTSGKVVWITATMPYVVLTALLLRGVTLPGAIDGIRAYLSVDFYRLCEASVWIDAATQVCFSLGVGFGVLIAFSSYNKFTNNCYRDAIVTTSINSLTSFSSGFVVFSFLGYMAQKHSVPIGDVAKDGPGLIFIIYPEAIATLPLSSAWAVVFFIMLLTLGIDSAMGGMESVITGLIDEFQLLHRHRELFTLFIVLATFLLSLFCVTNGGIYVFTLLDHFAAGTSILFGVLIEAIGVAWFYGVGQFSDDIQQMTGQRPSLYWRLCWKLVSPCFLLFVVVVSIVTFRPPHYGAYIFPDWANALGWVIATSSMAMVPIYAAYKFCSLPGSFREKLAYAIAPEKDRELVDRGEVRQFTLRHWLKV
Description: as §1, §2

alpha 2b receptor = target: T1, alpha 2b receptor (Homo sapiens, UniProt P18089); assay: In vitro receptor binding (NIMH PDSP); conditions: in words; binding counted at Ki < 10 μM
T1 sequence (P18089 1-450): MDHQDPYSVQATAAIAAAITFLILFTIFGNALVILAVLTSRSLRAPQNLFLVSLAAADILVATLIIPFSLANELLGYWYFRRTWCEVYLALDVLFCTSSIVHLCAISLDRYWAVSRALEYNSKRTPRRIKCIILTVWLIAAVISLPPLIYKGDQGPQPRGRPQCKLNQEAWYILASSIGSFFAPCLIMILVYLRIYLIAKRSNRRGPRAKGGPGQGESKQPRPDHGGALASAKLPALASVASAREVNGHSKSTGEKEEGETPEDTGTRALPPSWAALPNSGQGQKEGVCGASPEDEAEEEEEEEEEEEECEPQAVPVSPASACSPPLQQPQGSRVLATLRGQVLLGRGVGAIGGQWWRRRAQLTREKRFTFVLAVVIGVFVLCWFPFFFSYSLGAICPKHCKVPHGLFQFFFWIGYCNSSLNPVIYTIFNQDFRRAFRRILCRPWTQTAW
Description: as §1, §2

TSPO = TSPO (Rattus norvegicus, UniProt P16257); assay: In vitro receptor binding (NIMH PDSP)
Chain of TSPO (P16257 whole entry): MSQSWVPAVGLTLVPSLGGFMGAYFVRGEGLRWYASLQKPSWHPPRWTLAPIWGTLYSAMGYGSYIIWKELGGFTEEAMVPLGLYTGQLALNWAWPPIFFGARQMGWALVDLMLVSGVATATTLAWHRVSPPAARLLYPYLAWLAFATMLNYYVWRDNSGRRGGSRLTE
Description: as §1, §2

adult zebrafish = assay: Behavioral responses of adult zebrafish; conditions: in words
zebrafish [3] = assay: Viability of anesthetic treated animals; format: in vivo; conditions: zebrafish, in vivo
Method: (§3) Behavioral assays for pERK. Animals were treated with DMSO or drug for one hour then exposed to a low-volume acoustic stimulus every 10 seconds for 10 minutes. Optovin-treated animals were stimulated with violet light for one second every 10 seconds for 10 minutes. Videos were recorded to measure response to the stimulus and quantified by motion index (MI). Animals were immediately […]
High speed imaging. Digital video was recorded at 500-1000 frames per second using an Integrated Design Tools NX5-S1 digital camera. Assay duration was 500-1000 ms. Low amplitude tap stimuli was delivered as described above. Videos and still images were assembled using Fiji (imageJ) and […]
RNAscope. Zebrafish (6 dpf) were fixed using 10% normal buffered formaldehyde overnight at 4 °C, dehydrated in 100% methanol and stored at -20 °C until the assay was performed. Fluorescent in situ hybridization was performed using the RNAScope kit (Advanced Cell Diagnostics)4 with the following modifications: target retrieval was performed using 150 mM Tris pH 9.5 for 15 minutes at 70 °C, washes were performed using 0.2x SSCT (0.01% Tween-20, […], 0.3mM TriNa-citrate, pH7), samples were stored overnight after probe hybridization and 2x 5 minute washes in 5x SSC ([…], pH7) at room temperature before amplification and detection steps were performed the following day.
Viability. Animals were scored manually to determine viability after anesthetic treatments. 100 animals were scored per condition at 10 minutes, 1 hour and 5 hours post treatment. Strong heart rate was observed under a dissecting scope (Leica M-80) for our viability score. […]
rdkit function FingerprintMols package written for python. Tanimoto similarity function was used with a […]

zebrafish [4] = assay: Cortisol detection assay; format: in vivo; conditions: 7-day old larvae treated 1 h; in words
Method: Cortisol levels were measured in zebrafish. Briefly, 15, 7-day old larvae were treated with the indicated compounds for 1 h. Larvae were anesthetized in ice-cold egg water and then snap-froze in an ethanol/dry ice bath. Larvae were then homogenized in 100 μL of water. Cortisol was extracted from the homogenate with 1 mL of ethyl acetate, the resulting supernatant was collected and the solvent allowed to evaporate. Cortisol was dissolved in 0.2% bovine serum albumin (A7030, Sigma) and frozen at −20 °C. For cortisol ELISA experiments, 96-well plates (VWR International) were treated with cortisol antibody (P01-92-94M-P, EastCoast Bio; […] in PBS) for 16 h at 4 °C, washed, and blocked with 0.1% BSA in PBS. Cortisol samples and cortisol-HRP (P91-92-91H, EastCoast Bio) were incubated at room temperature for 2 h and washed extensively with PBS containing 0.05% Tween-20 (Invitrogen). Detection of HRP was performed using tetramethylbenzidine (TMB: 22166-1, Biomol) and Tetrabutylammonium borohydride (TBABH: 230170-10 G, Sigma). Reaction was stopped using 1 M H2SO4. Absorbance was read at 450 nm in an ELISA plate reader (SpectraMax MS, Molecular Devices).

zebrafish [5] = format: in vivo; conditions: for rescue of behavioral phenotypes by pretreatment with the GABAAR antagonist PTX: violet light and eASR phenotypes, in words
zebrafish [6] = format: in vivo
Method: as §3, with “(MI).” for “(MI). Animals were immediately”

zebrafish [7] = assay: Optovin-response suppression assay (pain-related); conditions: in words; relative to concentrations that caused eASRs
Description: To determine if any of the hit compounds may be analgesic, we used optovin-induced motor activity as a potential analgesia-related assay.

Structure (SMILES) | Ave Norm FLIPR Score [1] | binding [2] | binding (dopamine transporter) | binding (alpha 2b receptor) | binding (TSPO) | violet light response and acoustic startle in adult animals (adult zebrafish) | toxicity at the concentrations that caused eASRs (zebrafish [3]) | cortisol levels (zebrafish [4]) | eASRs at higher concentration (zebrafish [5]; 50 µM compared to 6 µM) | Average phenoscore of etomidate-treated positive controls (zebrafish [5]; etomidate 6.5 uM, versus DMSO 0.2) | percent animals responding (startle frequency) (zebrafish [5]; etomidate 6.25 µΜ, dampened solenoid stimulus, 100 animals, controls 2%) | rescue of behavioral phenotypes by pretreatment with the GABAAR antagonist PTX (zebrafish [5]) | pERK labeling (neuronal activity) (zebrafish [6]; in words) | pERK labeling in the caudal hindbrain at higher concentration (zebrafish [6]; zebrafish, in vivo) | FLIPR Results [1] | GABAAR PAM activity in FLIPR, in words [1] | optovin response (optovin-induced motor activity) (zebrafish [7]) | phenocopy (zebrafish [5]; […], positive/negative)
O=C(NCc1cccc(Oc2ccccc2)c1)C(=O)c1c[nH]c2ccccc12 [compound 7145248] | -24.79 | bound | bound | bound | bound | – | – | – | – | – | – | – | – | – | – | – | – | –
CCOC(=O)c1cncn1[C@H](C)c1ccccc1 [etomidate] | 50.67 | – | – | – | – | reducing the violet light response, while increasing acoustic startle | Neither etomidate or propofol was toxic | lowered cortisol levels | suppressed eASRs | 0.71 | 85% | rescued | broadly reduced | decreased pERK labeling in the caudal hindbrain | Positive | increased fluorescence in the presence of GABA | suppressed the optovin response | –
CCc1cc2c(=O)c(-c3ccccc3Cl)c(C)oc2cc1OC [compound 7013338] | – | – | – | – | – | reducing the violet light response, while increasing acoustic startle | – | – | – | – | – | partially rescued | – | – | Positive | potentiated GABAARs significantly greater than positive controls; also recorded: significantly greater than the positive controls; also recorded: the most effective hit compound in the FLIPR assays; also recorded: activated human GABAARs more than any other hit compound | did not suppress the optovin response | positive
